Literature values in patent US20180147234A1, “COMPOSITIONS AND METHODS FOR TREATMENT OF FIBROMYALGIA” (Luitpold Pharmaceuticals, Inc., priority 2015, published 2018).

Conditions: in vivo

Substance: polyglucose sorbitol carboxymethyl ether-coated non-stoichiometric magnetite [ferumoxytol]
- Blood half-life: 10 to 14 h
